# Reference: patent US11053204B2, “Pyrimidinyloxy benzene derivatives as herbicides” (FMC Corporation, priority 2015, dated 2021)
# Columns and labels:
# Assay in all cases: Test C postemergence, plant response rating
# Type in all cases: in vivo
# [1] = test system: blackgrass (Alopecurus myosuroides); conditions: for Plant response rating, Blackgrass: scale 0 to 100; for Blackgrass plant response rating: scale 0 to 100 (0 no effect, 100 complete control)
# Outline: (§1)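 Visual injury score, 0 = no effect, 100 = complete control, assigned against untreated controls after 13 to 15 d in the greenhouse. Compounds were applied in a surfactant-containing non-phytotoxic solvent mix, preemergence to seeded loam/sand or silt loam soil, or postemergence to 1- to 4-leaf plants (2 to 18 cm).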
# [2] = test system: chickweed (common chickweed, Stellaria media); conditions: for Chickweed plant response rating: scale 0 to 100 (0 no effect, 100 complete control)
# Outline: as §1
# corn (Zea mays) = conditions: for Corn plant response rating: scale 0 to 100 (0 no effect, 100 complete control)
# Outline: as §1
# [3] = test system: foxtail, giant (giant foxtail, Setaria faberii); conditions: for Foxtail, Giant plant response rating: scale 0 to 100 (0 no effect, 100 complete control)
# Outline: as §1
# [4] = test system: galium (catchweed bedstraw, Galium aparine); conditions: for Galium plant response rating: scale 0 to 100 (0 no effect, 100 complete control)
# Outline: as §1
# kochia (Kochia scoparia) = conditions: for Kochia plant response rating: scale 0 to 100 (0 no effect, 100 complete control)
# Outline: as §1
# [5] = test system: lambsquarters (Chenopodium album); conditions: for Lambsquarters plant response rating: scale 0 to 100 (0 no effect, 100 complete control)
# Outline: as §1
# [6] = test system: morningglory (Ipomoea coccinea); conditions: for Morningglory plant response rating: scale 0 to 100 (0 no effect, 100 complete control)
# Outline: as §1
# [7] = test system: nutsedge, yellow (yellow nutsedge, Cyperus esculentus); conditions: for Nutsedge, Yellow plant response rating: scale 0 to 100 (0 no effect, 100 complete control)
# Outline: as §1
# [8] = test system: oat, wild (wild oat Avena fatua); conditions: for Oat, Wild plant response rating: scale 0 to 100 (0 no effect, 100 complete control)
# Outline: as §1
# [9] = test system: oilseed rape (Brassica napus); conditions: for Oilseed Rape plant response rating: scale 0 to 100 (0 no effect, 100 complete control)
# Outline: as §1
# [10] = test system: ragweed (common ragweed, Ambrosia elatior); conditions: for Ragweed plant response rating: scale 0 to 100 (0 no effect, 100 complete control)
# Outline: as §1
# soybean (Glycine max) = conditions: for Soybean plant response rating: scale 0 to 100 (0 no effect, 100 complete control)
# Outline: as §1
# [11] = test system: velvetleaf (Abutilon theophrasti)
# Outline: as §1
# [12] = test system: waterhemp (common waterhemp, Amaranthus rudis)
# Outline: as §1
# [13] = test system: wheat (winter wheat, Triticum aestivum)
# Outline: as §1
# [14] = 125 g ai/ha, scale 0 to 100 (0 no effect, 100 complete control)
smiles,measurement,setting,value
FC(F)(F)CCCCc1c(Cl)cccc1Oc1ncc(Cl)cn1 [Compound 137],"Plant response rating, Blackgrass",[1]; 16 g ai/ha,5
same,"Plant response rating, Blackgrass",[1]; 31 g ai/ha,10
same,Blackgrass plant response rating,[1]; 62 g ai/ha,15
same,Blackgrass plant response rating,[1]; 125 g ai/ha,40
same,"Plant response rating, Chickweed","[2]; 16 g ai/ha, scale of 0 to 100",70
same,"Plant response rating, Chickweed","[2]; 31 g ai/ha, scale 0 to 100",55
same,Chickweed plant response rating,[2]; 62 g ai/ha,90
same,Chickweed plant response rating,[2]; 125 g ai/ha,100
same,"Plant response rating, Corn","corn (Zea mays); 16 g ai/ha, scale of 0 to 100",10
same,"Plant response rating, Corn","corn (Zea mays); 31 g ai/ha, scale 0 to 100",15
same,Corn plant response rating,corn (Zea mays); 62 g ai/ha,15
same,Corn plant response rating,corn (Zea mays); 125 g ai/ha,25
same,"Plant response rating, Foxtail, Giant","[3]; 16 g ai/ha, scale of 0 to 100",20
same,"Plant response rating, Foxtail, Giant","[3]; 31 g ai/ha, scale 0 to 100",20
same,"Foxtail, Giant plant response rating",[3]; 62 g ai/ha,40
same,"Foxtail, Giant plant response rating",[3]; 125 g ai/ha,35
same,"Plant response rating, Galium","[4]; 16 g ai/ha, scale of 0 to 100",55
same,"Plant response rating, Galium","[4]; 31 g ai/ha, scale 0 to 100",70
same,Galium plant response rating,[4]; 62 g ai/ha,75
same,Galium plant response rating,[4]; 125 g ai/ha,85
same,"Plant response rating, Kochia","kochia (Kochia scoparia); 16 g ai/ha, scale of 0 to 100",85
same,"Plant response rating, Kochia","kochia (Kochia scoparia); 31 g ai/ha, scale 0 to 100",90
same,Kochia plant response rating,kochia (Kochia scoparia); 62 g ai/ha,98
same,Kochia plant response rating,kochia (Kochia scoparia); 125 g ai/ha,98
same,"Plant response rating, Lambsquarters","[5]; 16 g ai/ha, scale of 0 to 100",55
same,"Plant response rating, Lambsquarters","[5]; 31 g ai/ha, scale 0 to 100",75
same,Lambsquarters plant response rating,[5]; 62 g ai/ha,85
same,Lambsquarters plant response rating,[5]; 125 g ai/ha,90
same,"Plant response rating, Morningglory","[6]; 16 g ai/ha, scale of 0 to 100",10
same,"Plant response rating, Morningglory","[6]; 31 g ai/ha, scale 0 to 100",15
same,Morningglory plant response rating,[6]; 62 g ai/ha,20
same,Morningglory plant response rating,[6]; 125 g ai/ha,20
same,"Plant response rating, Nutsedge, Yellow","[7]; 16 g ai/ha, scale of 0 to 100",0
same,"Plant response rating, Nutsedge, Yellow","[7]; 31 g ai/ha, scale 0 to 100",0
same,"Nutsedge, Yellow plant response rating",[7]; 62 g ai/ha,10
same,"Nutsedge, Yellow plant response rating",[7]; 125 g ai/ha,5
same,"Plant response rating, Oat, Wild","[8]; 16 g ai/ha, scale of 0 to 100",5
same,"Plant response rating, Oat, Wild","[8]; 31 g ai/ha, scale 0 to 100",10
same,"Oat, Wild plant response rating",[8]; 62 g ai/ha,10
same,"Oat, Wild plant response rating",[8]; 125 g ai/ha,10
same,"Plant response rating, Oilseed Rape","[9]; 16 g ai/ha, scale of 0 to 100",90
same,"Plant response rating, Oilseed Rape","[9]; 31 g ai/ha, scale 0 to 100",95
same,Oilseed Rape plant response rating,[9]; 62 g ai/ha,90
same,Oilseed Rape plant response rating,[9]; 125 g ai/ha,100
same,"Plant response rating, Ragweed","[10]; 16 g ai/ha, scale of 0 to 100",20
same,"Plant response rating, Ragweed","[10]; 31 g ai/ha, scale 0 to 100",35
same,Ragweed plant response rating,[10]; 62 g ai/ha,30
same,Ragweed plant response rating,[10]; 125 g ai/ha,30
same,"Plant response rating, Soybean","soybean (Glycine max); 16 g ai/ha, scale of 0 to 100",20
same,"Plant response rating, Soybean","soybean (Glycine max); 31 g ai/ha, scale 0 to 100",30
same,Soybean plant response rating,soybean (Glycine max); 62 g ai/ha,45
same,Soybean plant response rating,soybean (Glycine max); 125 g ai/ha,40
same,"Plant response rating, Velvetleaf","[11]; 16 g ai/ha, scale of 0 to 100",10
same,"Plant response rating, Velvetleaf","[11]; 31 g ai/ha, scale 0 to 100",15
same,Velvetleaf plant response rating,[11]; [14],70
same,"Plant response rating, Waterhemp","[12]; 16 g ai/ha, scale of 0 to 100",40
same,"Plant response rating, Waterhemp","[12]; 31 g ai/ha, scale 0 to 100",60
same,Waterhemp plant response rating,[12]; [14],75
same,"Plant response rating, Wheat","[13]; 16 g ai/ha, scale of 0 to 100",5
same,"Plant response rating, Wheat","[13]; 31 g ai/ha, scale 0 to 100",5
same,Wheat plant response rating,[13]; [14],20
